Data from EP0740650B1, “CODRUGS AS A METHOD OF CONTROLLED DRUG DELIVERY” (priority 1994, dated 1995).

Key:
[1] = physchem; type: physicochemical; settings: phosphate buffer
Procedure: (§1) A stock solution was prepared by dissolving 10 mg of 5FU/TRI in 10 ml acetonitrile. This was then added to a series of phosphate buffers at pH 3, 5, 6.4, 7.4 and 8.4 at 37°C to give final concentrations of 100 ug/ml. Care was taken to ensure that these solutions were indeed solutions and not suspensions. Samples were periodically removed and assayed by HPLC as described below. Enzymatic hydrolysis was determine in a similar way using pooled serum from 3 volunteers. The assay procedure used distinguished between TRI and 5FU/TRI. 5FU was assayed under different conditions. HPLC Assays: Samples of buffer containing codrug and steroids were assayed by HPLC using a fully automated Hitachi system with a C-18 reverse phase column (25 cm × 4 mm x 5 µm) and uv detection. The mobile phase was 40% acetonitrile buffered to 4.0 with 0.02% sodium acetate. The flow rate was 1.0 ml/min and detection was at 238 nm. Under these conditions the retention time of the codrug 5FU/TRI was 17 minutes while triamcinolone acetonide eluted at 9 minutes. Quantitation limits were 0.3 and 0.5 ug/ml, respectively. […] For 5FU an Applied Biosystems HPLC system was used with a C-18 column reverse phase column (25 cm x 4 mm x 5 µm) and 0.02% sodium acetate buffer mobile phase (Ph 4.0). The flow rate was 1.0 ml/min and detection was by uv at 266 nm. Under these condition the retention time was 6.5 minutes and the detection limit 0.2 ug/ml.

[2] = in vitro; type: in vitro ADME; settings: human, serum, t½
Procedure: as §1, with “Under these condition the retention time was 6.5 minutes and the detection limit 0.2 ug/ml.” left out
To quantitate 5FU it was necessary to remove acetonitrile before analysis. […]

[3] = In vitro release from 2 mg codrug pellets in phosphate buffer (Example 3); type: physicochemical
Procedure: Two mg pellets of the codrug 5FU/TRI were prepared in a 1.5 mm pellet press using a modified Parr Instrument Press. Pellets were then immersed in 5 ml phosphate buffer (Ph 7.4, 37 °C) and 300 µl samples removed each day for 6 days; there immediately replaced was replaced 300 µl of buffer. Samples were assayed by HPLC for 5FU/TRI, triamcinolone acetonide and 5FU. After 6 days buffer was completely replaced, to maintain sink conditions, and sampling continued.

[4] = Vitreous concentrations after intravitreal implantation of codrug pellets (Example 4); type: in vivo, New Zealand white rabbits
Procedure: Two mg pellets of the codrug 5FU/TRI were prepared using a 1.5 mm press. These pellets were then fixed onto 6-0 nylon suture using intraocular lens grade silicone. silicone covered the base of the pellets providing a platform for suture attachment. Alternatively a solution of 2% or 5% polylactic acid was used. Pellets attached by both methods were implanted into the vitreous of 8 New Zealand white rabbits through a small incision through the sclera. For each type of device, two animals were killed after 1, 2, 3, and 4 weeks and the vitreous and aqueous obtained from the frozen sphere. Before death animals were examined with a slit lamp. […] Pellets were then implanted into the vitreous of 8 New Zealand White rabbits in a similar manner to that described in 3b except that sclerotomy sites were smaller in this case (2.5 mm). […] HPLC analysis was then performed on tissue samples and explanted devices to determine the concentrations of 5FU, triamcinolone acetonide and intact 5FU/TRI.

[5] = tested on: extraocular muscle (EOM) surgery in rabbits; assay: Scar reduction after extraocular muscle surgery with codrug implants (Example 5); type: in vivo
Procedure: After the IRM was sewn back into its insertion site, four 2 mg codrug implants were inserted between sclera and muscle in the right eye, while the left was used as a control. Bioerodible codrug implants releasing 5FU and TRI over 6 weeks were prepared. Devices release equimolar amounds of 5FU and TRI. Animals were sacrificed at 1, 2 and 3 weeks and eyes eviscerated. Specimens were prepared and stained with H&E. The scar thickness and cellular infiltrate were determined quantitatively using a Bioscan image analysis program.

[6] = Subconjunctival codrug devices: release from explanted devices, toxicity (Example 6); type: in vivo, rabbits; settings: rabbit
Procedure: Codrug devices were prepared as flat discs 2.5 mm in diameter weighing 5 mg. Each device contained approximately 3.7 mg of TRI and 1.3 mg of 5FU and were composed of over 97% active substance. Devices were implanted subconjunctivally in each eye of ten rabbits (figure 2). Toxicity and inflammation were determined by weekly slit lamp examinations and electroretinograms (ERGs). Animals were sacrificed after 3, 7, 10 and 14 days and eyes eviscerated. After freezing at -70°C devices were removed for determination of residual drugs and the complete vitreous and aqueous dissected from the ice ball to determine the concentration of SFU and TRI. Two animals were used for histology and were sacrificed 6 weeks after implantation.

[7] = tested on: posterior capsular opacification (PCO); assay: Posterior capsular opacification after cataract extraction and IOL implantation with codrug pellet (Example 7); type: in vivo, New Zealand White rabbits
Procedure: Codrug pellets were prepared that gave pseudo zero order release of 5FU and TRI in an equimolar ratio over 6 weeks. […] 1.5 mm pellets containing 1.5 mg of TRI and 0.5 mg 5FU were prepared and fixed to the haptics of IOLs using the bioerodible polybutyl cyanoacrylate. This polymer is soaked into the pellet forming a codrug/cyanoacrylate matrix as it dried (figure 3). 16 New Zealand White rabbits were used in this study, one eye (control) received a polymethyl methacrylate intraocular lens (IOL) (Chiron Intraoptics) while the other received an IOL with codrug. Eyes were examined regularly by slit lamp and PCO scored from 0 to 4+. Retinal function was determined by electroretinogram (ERG) before implantation and before sacrifice. Animals were sacrificed after 4, 8, 12 and 16 weeks; eyes were removed and fixed in formalin. Photographs of posterior capsule were projected onto a grid and the percentage of PCO calculated.

[8] = In vitro release from 1.5 mm codrug implants in phosphate buffer (Example 8); type: physicochemical; settings: 1.5 mm implant, phosphate buffer pH 7.4
Procedure: (§2) Bioerodible codrug implants were prepared 1.5 mm in diameter and attached to 6-0 nylon suture. Implants were immersed in 5 ml of phosphate buffer (pH 7.4) and samples periodically removed for HPLC assay to determine the release of both 5FU and TRI. Similar implants were then inserted into the vitreous of 14 New Zealand White rabbits (figure 4). Toxicity was assess by electroretinogram and slit lamp examination in all animals. Histopathologic examination was performed on four animals. Ten animals were used for pharmacokinetics; two animals were sacrificed 1, 2, 3, 4 and 5 weeks after implantation. Eyes were enucleated, devices removed and both vitreous and aqueous obtained. All samples were assayed by HPLC. Five animals received actual devices in one eye and placebo implants in contralateral eyes. These were sacrificed after 3 and 6 weeks for histopathologic examination.

[9] = Intravitreal codrug implants: pharmacokinetics and toxicity (Example 8); type: in vivo, New Zealand White rabbits; settings: intravitreal implant
Procedure: as §2

[10] = tested on: proliferative vitreoretinopathy (PVR); assay: Intravitreal pellet after vitrectomy, proliferative vitreoretinopathy; type: in vivo; settings: pellet implanted intravitreally after vitrectomy; animal studies proceeding
[11] = immersed in pH 7.4 buffer
[12] = physchem; settings: buffer
[13] = Stability of acetazolamide sulfocarbamate derivative in buffer solution; type: physicochemical

CC1(C)O[C@@H]2C[C@H]3[C@@H]4CCC5=CC(=O)C=C[C@]5(C)[C@@]4(F)[C@@H](O)C[C@]3(C)[C@]2(C(=O)COC(=O)OCn2cc(F)c(=O)[nH]c2=O)O1 [5FU/TRI]
half-life ([1]; pH 3): 204 h | half-life ([1]; pH 5): 12.7 h | half-life ([1]; pH 6.4): 1.3 h | half-life ([1]; pH 7.4): 0.235 h | half-life ([1]; pH 8.4): 0.163 h | half-life ([2]; half-life): < 10 min | half-life [2]: 8.8 min | fraction of triamcinolone acetonide and 5FU released while rates were maintained ([3]; 2 mg pellet, phosphate buffer pH 7.4): over 60% | Release of 5FU ([3]; 2 mg pellet, phosphate buffer pH 7.4, 37 °C): 0.4 ± 0.06 µg/h | intact codrug in the receptor medium ([3]; 2 mg pellet, phosphate buffer pH 7.4, 37 °C, HPLC detection limit 0.5 ug/ml): No intact codrug was detected | mean release rate of triamcinolone acetonide ([3]; 2 mg pellet, phosphate buffer pH 7.4, 37 °C, pseudo zero order): 1.4 ± 0.3 µg/h | mean ratio of 5FU to triamcinolone acetonide concentration (ug/ml) in the receptor solution ([3]; all time points (equimolar release)): 3.40 +/- 0.15 | intact codrug in the vitreous ([4]; 2 mg pellets implanted in rabbit vitreous): No intact codrug was detected | intravitreal levels of triamcinolone ([4]; rabbit vitreous, week 5): below the detection limit of the HPLC | number of inflammatory cells in a defined area of tissue ([5]; 40 µm^2 area, control > 300): < 35 | scar thickness ([5]; drug treated eyes (controls 35 µm)): 7 µm | decrease in scar thickness compared to controls ([5]; four 2 mg implants between sclera and muscle, rabbit): 80% | ERGs ([6]; in vivo): normal | release rate of 5FU and TRI from explanted devices (pseudo zero order) ([6]; in vivo): 9 +/-1 % per day | toxicity or inflammation around the implantation site ([6]; subconjunctival devices, slit lamp): no evidence of toxicity or inflammation | tolerability (ERG and histopathologic data) ([7]; codrug pellet on IOL haptic, rabbit capsular bag): well tolerated with no indication of a toxic or inflammatory response | PCO by slit lamp examination, study versus control eyes ([7]; p< 0.001): statistically significant decrease in PCO | PCO assessed using a grid ([7]; p< 0.03 by 8 weeks): arrest of opacification | release of 5FU in buffer [8]: 0.3 µg/h | release of TRI in buffer [8]: 1.4 µg/h | Levels of TRI and 5FU in the aqueous ([9]; rabbit): too low to be detected | tolerability in rabbit eyes ([9]; ERG, slit lamp, histopathology): well tolerated in rabbit eyes with no indication of toxicity or inflammation | occurrence of PVR [10]: reduce the occurrence of PVR | release of TRI and 5FU from compressed pellet [11]: slowly releases both TRI and 5FU over an extended period of time (months) | half-life ([12]; pH 3): > 48 h | half-life ([12]; pH 7.4): < 0.05 h

CC(=O)Nc1nnc(S(=O)(=O)NC(=O)O[C@@H]2C[C@H](C)CC[C@H]2C(C)C)s1 [product 35]
stability in buffer solution [13]: appears to stable in buffer solution
